From patent US11351229B2, “Combination therapies for treating infantile spasms and other treatment resistant epilepsies” (Baylor College of Medicine, priority 2017, dated 2022)
Like-named read-outs stand apart in the source and are kept apart here.

What was measured:
[1] = test system: IGF-1R-PI3K-AKT and IGF-1R-Ras-ERK signaling cascades; test: Western blots of IGF-1R signaling in neocortex (Example 9); type: in vivo
Method: Briefly, brains were quickly removed from the skull under anesthesia and the cortex dissected free from adhering tissue. It was then snap frozen on dry ice and later homogenized by sonication. Protein concentrations were determined by the BCA assay. Equal quantities of protein (10 μg) from each sample were resolved by polyacrylamide gel electrophoresis. The primary antibodies used were against: pAKT Thr308, pAkt Ser473, pS6 Ser240/244, AKT, S6, IGF-1R. Secondary antibodies were conjugated to horseradish peroxidase and visualization of immunoreactive bands was produced by enhanced chemiluminescence and then exposed to Kodak Biomax film. After digitization, band intensity was quantified with Image J Image software. Blots were also probed with antibodies to GAPDH, which served as a loading control. Band intensity was normalized to control values on the same blot.
The experiments were performed using N=5 for both control and epileptic groups. Animals were 6 weeks old and sacrificed 2 hours after treatment.
Animals (6 weeks old) were treated with 50 mg/kg of PPP or DMSO vehicle. Four hours later, they received 20 mg/kg of (1-3)IGF-1 or vehicle. Two hour later the neocortex was collected.
Vigabatrin (125 mg/kg) was injected 2 and 24 hours before collecting neocortex. Western blots from 2 animals and controls are shown in upper panel (FIG. 25A) for bar graphs n=6. For the combination study, the animals were administered vigabatrin (125/mg/kg), and (1-3)IGF-1 (20 mg/kg) was injected 30 min before collecting cortex in the combination group and the (1-3)IGF-1-only group. Controls received vehicle only. The results are illustrated in FIG. 25B.

[2] = Plasma concentration of vigabatrin alone or co-administered with (1-3)IGF-1; type: in vivo, rat; conditions: vigabatrin 125 mg/kg, (1-3)IGF-1 20 mg/kg, rats
Method: FIG. 21 illustrates plasma concentration for vigabatrin (administered to rats at 125 mg/kg) when administered alone or in combination with (1-3)IGF-1 (20 mg/kg).

[3] = test system: epileptic spasms (TTX rat model of infantile spasms); type: in vivo
[4] = test system: hypsarrhythmia (abnormal EEG pattern); test: EEG analysis for hypsarrhythmia in rats with spasms; type: in vivo, rat; conditions: VGB 325 mg/kg/day, 2 weeks; 5 rats with pattern at baseline
[5] = human, in vivo; cited from earlier work
[6] = each drug alone: VGB 250 mg/kg/day or (1-3)IGF-1 10 mg/kg/day, 2 weeks

For `COc1cc([C@@H]2c3cc4c(cc3[C@H](O)[C@H]3COC(=O)[C@@H]23)OCO4)cc(OC)c1OC` [picropodophyllin, (5R,5aR,8aS,9R)-5-hydroxy-9-(3,4,5-trimethoxyphenyl)-5a,6,8a,9-tetrahydro-5H-[2]benzofuro[5,6-f][1,3]benzodioxol-8-one], which “effect on (1-3)IGF-1 induced activation of AKT” value ([1]; 50 mg/kg PPP, 4 hours before 20 mg/kg (1-3)IGF-1, neocortex collected 2 hours later) is on record?
The value was “blocks”.

With `NCC(=O)N1CCC[C@H]1C(=O)N[C@@H](CCC(=O)O)C(=O)O` [(1-3)IGF-1, Gly-Pro-Glu] as the molecule, how does the “effect of co-administration on vigabatrin pharmacokinetics (plasma concentration)” value [2] read?
The value was “no discernible effect”.

With `C=CC(N)CCC(=O)O` (stereo not shown) [vigabatrin, γ-vinyl-GABA] as the molecule, how does the “spasm counts (in words)” value ([3]; VGB 325 mg/kg/day i.p., 2 weeks, vs vehicle controls) read?
Its value is “dramatic reduction in spasm counts”.

What about the “effect on spasm counts (in words)” value [3, 6] of the same molecule?
The value was “modest effects on spasm counts”.

And the “presence of spasms after treatment, all rats” value [3, 6]?
Its value is “continued to have spasms”.

And the “effect on % animals with spasms” value ([3]; individual administration: vigabatrin 125 mg/kg/day or (1-3)IGF-1 20 mg/kg/day, 2 weeks)?
The value was “no measurable effect”.

And the “effect on % animals with spasms” value ([3]; individual administration: vigabatrin 250 mg/kg/day or (1-3)IGF-1 10 mg/kg/day, 2 weeks)?
Its value is “no measurable effect”.

What about the hypsarrhythmia after treatment [4] of the same molecule?
Its hypsarrhythmia after treatment is “eliminated in all of them”.

What about the “activation of IGF-1R signaling” value ([1]; vigabatrin 125 mg/kg, 2 and 24 hours before collecting neocortex) of the same molecule?
The value was “does not activate”.

And the “effect on (1-3)IGF-1-induced IGF-1R signaling” value ([1]; vigabatrin 125 mg/kg, (1-3)IGF-1 20 mg/kg 30 min before collecting cortex)?
Its value is “does not alter”.

What about the “adults with visual field loss” value [5] of the same molecule?
The value was 52%.

And the “children with visual field loss” value [5]?
The value was 34%.

What about the “vigabatrin-treated subjects with visual field loss” value [5] of the same molecule?
Its value is 44%.

With “rhIGF-1: rhIGF-1 from Peprotech; the full length growth factor” as the molecule, how does the “rats that became free of spasms” value ([3]; rhIGF-1 1 mg/kg/day, 3 weeks) read?
Its value is “One of the 5”.

What about the “rats that continued to have spasms after treatment” value ([3]; rhIGF-1 1 mg/kg/day, 3 weeks) of the same molecule?
The value was 4 of 5.

What about the “reduction of spasm counts, on average” value ([3]; rhIGF-1 1 mg/kg/day, 3 weeks) of the same molecule?
The value was 40%.
